The record followed here is patent publication US7524964B2, “Tetrahydrothiopyrano pyrazole cannabinoid modulators” (Janssen Pharmaceutica NV, priority 2005, dated 2009).

The target in one assay is T1, human CB-2 receptor (Homo sapiens, UniProt P34972).
T1 construct: expressed in transfected cells; host or cells: SK-N-MC cells, pcDNA3 CB-2 (human), semi-purified membranes
The assay can be described thus: Binding assay, cannabinoid CB2 receptor ([3H]-CP-55,940 displacement). The conditions noted are these: read-out: CB2 binding percent inhibition; for inhibition at 0.2 µM: test concentration 0.2 μM (superscript a); for inhibition at 1 µM: test concentration 1 μM (superscript b). The essentials:
(§1)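 Displacement of 0.2 nM [3H]-CP-55,940 (non-specific: 10 uM WIN 55,212) was run on semi-purified membranes of transfected SK-N-MC cells carrying human CB-1 or CB-2, 90 min, 30° C, pH 7.5. Scintillation counting; IC50 by linear regression, else % inhibition at 0.2, 1 or 10 μM.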

A further assay concerns the target human CB1 receptor (Homo sapiens, UniProt P21554). The assay can be described thus: Binding assay, cannabinoid CB1 receptor ([3H]-CP-55,940 displacement). More on the design: expressed in transfected cells; host or cells: SK-N-MC cells, pcDNA3 CB-1 (human), semi-purified membranes. To be noted: for inhibition at 1 µM: test concentration 1 μM (superscript b); for inhibition at 0.2 µM: test concentration 0.2 μM (superscript a). In outline:
as §1

Where [1] appears, read: read-out: CB1 binding percent inhibition.

T1 sequence (P34972 whole entry): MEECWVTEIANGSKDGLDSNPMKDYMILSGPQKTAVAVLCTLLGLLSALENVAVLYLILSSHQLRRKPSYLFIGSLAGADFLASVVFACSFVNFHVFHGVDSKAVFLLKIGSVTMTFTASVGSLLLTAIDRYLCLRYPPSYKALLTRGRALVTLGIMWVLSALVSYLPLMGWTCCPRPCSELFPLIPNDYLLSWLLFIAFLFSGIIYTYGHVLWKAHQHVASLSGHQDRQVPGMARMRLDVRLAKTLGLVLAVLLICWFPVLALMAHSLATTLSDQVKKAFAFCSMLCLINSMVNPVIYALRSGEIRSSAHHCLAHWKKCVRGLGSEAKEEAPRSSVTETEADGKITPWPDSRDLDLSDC
human CB1 receptor, sequence (P21554 whole entry): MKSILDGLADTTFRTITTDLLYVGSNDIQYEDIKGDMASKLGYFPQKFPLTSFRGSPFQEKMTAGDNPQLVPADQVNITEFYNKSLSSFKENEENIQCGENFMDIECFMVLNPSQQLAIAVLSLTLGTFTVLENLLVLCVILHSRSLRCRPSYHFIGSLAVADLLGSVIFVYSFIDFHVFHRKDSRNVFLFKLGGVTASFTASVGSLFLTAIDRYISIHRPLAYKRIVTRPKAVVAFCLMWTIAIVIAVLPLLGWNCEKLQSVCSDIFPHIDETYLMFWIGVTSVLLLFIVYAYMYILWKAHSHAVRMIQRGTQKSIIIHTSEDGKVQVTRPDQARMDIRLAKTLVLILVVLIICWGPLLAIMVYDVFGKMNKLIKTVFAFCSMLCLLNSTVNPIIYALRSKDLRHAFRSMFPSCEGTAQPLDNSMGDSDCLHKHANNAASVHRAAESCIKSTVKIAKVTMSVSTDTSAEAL

In general, inhibition refers to the share of the control response that was lost under treatment. A word on the IC50: it is the concentration at which inhibition is half-maximal. Lower therefore signals higher potency. Turning to `C[C@@H](NC(=O)c1nn(-c2ccc(Cl)cc2Cl)c2c1CS(=O)(=O)C/C2=C\c1ccc(F)cc1)c1ccccc1` [Cpd 66, (7Z)-1-(2,4-dichloro-phenyl)-7-(4-fluoro-benzylidene)-5,5-dioxo-4,5,6,7-tetrahydro-1H-5λ^6-thiopyrano[4,3-c]pyrazole-3-carboxylic acid [(1R)-1-phenyl-ethyl]-amide], the inhibition at 0.2 µM at human CB-2 receptor stood at 24%. The compound further displayed an IC50 on human CB1 receptor of 4 nM.

Regarding `C[C@@H](NS(=O)(=O)/C=C/c1nn(Cc2ccccc2)c2c1CSCC2)C1CCCCC1` [Cpd 11, (E)-2-(1-benzyl-1,4,6,7-tetrahydro-thiopyrano[4,3-c]pyrazol-3-yl)-ethenesulfonic acid [(1R)-1-cyclohexyl-ethyl]-amide], the inhibition at 1 µM at human CB-2 receptor was found to be 39%; at human CB1 receptor (setting [1]), 29%.

On to `C[C@@H](NC(=O)c1nn(-c2ccc(Cl)cc2Cl)c2c1C[S+]([O-])C/C2=C\c1ccc(F)cc1)c1ccccc1` (stereo partly drawn) [Cpd 75, (7Z)-1-(2,4-dichloro-phenyl)-7-(4-fluoro-benzylidene)-5-oxo-4,5,6,7-tetrahydro-1H-5λ^4-thiopyrano[4,3-c]pyrazole-3-carboxylic acid [(1R)-1-phenyl-ethyl]-amide], for which the inhibition at 0.2 µM at human CB-2 receptor turned out to be 2%. The IC50 at human CB1 receptor turned out to be 14 nM.

As for `O=S1(=O)Cc2c(/C=C/S(=O)(=O)NN3CCCCC3)nn(-c3ccc(F)cc3F)c2C(Cc2cccc(F)c2)C1` (stereo not drawn) [Cpd 45, (E)-2-[1-(2,4-difluoro-phenyl)-7-(3-fluoro-benzyl)-5,5-dioxo-4,5,6,7-tetrahydro-1H-5λ^6-thiopyrano[4,3-c]pyrazol-3-yl]-ethenesulfonic acid piperidin-1-ylamide], the inhibition at 0.2 µM on human CB-2 receptor was 8%; at human CB1 receptor (setting [1]) it was 33%.

Take `O=C(NN1CCN(CCO)CC1)c1nn(-c2ccc(Cl)cc2Cl)c2c1CS(=O)(=O)C/C2=C\c1ccc(F)cc1` [Cpd 110, (7Z)-1-(2,4-dichloro-phenyl)-7-(4-fluoro-benzylidene)-5,5-dioxo-4,5,6,7-tetrahydro-1H-5λ^6-thiopyrano[4,3-c]pyrazole-3-carboxylic acid [4-(2-hydroxy-ethyl)-piperazin-1-yl]-amide]: the inhibition at 0.2 µM worked out at 7% on human CB-2 receptor and 13% on human CB1 receptor (setting [1]).

Take `O=C(NN1CCCCCC1)c1nn(-c2ccc(Cl)cc2Cl)c2c1CSC/C2=C\c1ccc(F)cc1` [Cpd 112, (7Z)-1-(2,4-dichloro-phenyl)-7-(4-fluoro-benzylidene)-1,4,6,7-tetrahydro-thiopyrano[4,3-c]pyrazole-3-carboxylic acid azepan-1-ylamide]: the inhibition at 0.2 µM at human CB-2 receptor is 8%. This compound also showed an IC50 at human CB1 receptor of 10 nM.

With `O=C(NN1CCCCC1)c1nn(-c2ccc(Cl)cc2Cl)c2c1CS(=O)(=O)C/C2=C\c1ccc(F)cc1` [Cpd 81, (7Z)-1-(2,4-dichloro-phenyl)-7-(4-fluoro-benzylidene)-5,5-dioxo-4,5,6,7-tetrahydro-1H-5λ^6-thiopyrano[4,3-c]pyrazole-3-carboxylic acid piperidin-1-ylamide], the inhibition at 0.2 µM at human CB-2 receptor amounted to 24%. This compound had an IC50 at human CB1 receptor of 32 nM.

With `C[C@@H](NS(=O)(=O)/C=C/c1nn(Cc2ccccc2)c2c1CS(=O)(=O)CC2)C1CCCCC1` [Cpd 14, (E)-2-(1-benzyl-5,5-dioxo-4,5,6,7-tetrahydro-1H-5λ^6-thiopyrano[4,3-c]pyrazol-3-yl)-ethenesulfonic acid [(1R)-1-cyclohexyl-ethyl]-amide], the inhibition at 1 µM on human CB-2 receptor and on human CB1 receptor (setting [1]) was 0% in each case.

`O=C(N[C@@H]1CCC[C@H]1O)c1nn(-c2ccc(Cl)cc2Cl)c2c1C[S+]([O-])C/C2=C\c1ccc(F)cc1` (stereo partly drawn) [Cpd 76, (7Z)-1-(2,4-dichloro-phenyl)-7-(4-fluoro-benzylidene)-5-oxo-4,5,6,7-tetrahydro-1H-5λ^4-thiopyrano[4,3-c]pyrazole-3-carboxylic acid [(1R,2R)-2-hydroxy-cyclopentyl]-amide]: the inhibition at 0.2 µM was 0% at human CB-2 receptor and 20% on human CB1 receptor (setting [1]).

Turning to `CN1CCN(NC(=O)c2nn(-c3ccc(Cl)cc3Cl)c3c2CS(=O)(=O)C/C3=C\c2ccc(F)cc2)CC1` [Cpd 109, (7Z)-1-(2,4-dichloro-phenyl)-7-(4-fluoro-benzylidene)-5,5-dioxo-4,5,6,7-tetrahydro-1H-5λ^6-thiopyrano[4,3-c]pyrazole-3-carboxylic acid (4-methyl-piperazin-1-yl)-amide], the inhibition at 0.2 µM on human CB-2 receptor came out at 6%; on human CB1 receptor (setting [1]), 4%.

In the case of `O=C(NNC1CCCCC1)c1nn(-c2ccc(Cl)cc2Cl)c2c1CSC/C2=C\c1ccc(F)cc1` [Cpd 115, (7Z)-1-(2,4-dichloro-phenyl)-7-(4-fluoro-benzylidene)-1,4,6,7-tetrahydro-thiopyrano[4,3-c]pyrazole-3-carboxylic acid N′-cyclohexyl-hydrazide], on human CB-2 receptor, the inhibition at 0.2 µM is 19%. Moreover, at human CB1 receptor, the IC50 worked out at 79 nM.

With `O=C(NN1CCN(CCO)CC1)c1nn(-c2ccc(Cl)cc2Cl)c2c1CSC/C2=C\c1ccc(F)cc1` [Cpd 114, (7Z)-1-(2,4-dichloro-phenyl)-7-(4-fluoro-benzylidene)-1,4,6,7-tetrahydro-thiopyrano[4,3-c]pyrazole-3-carboxylic acid [4-(2-hydroxy-ethyl)-piperazin-1-yl]-amide], the inhibition at 0.2 µM at human CB-2 receptor worked out at 5%; on human CB1 receptor (setting [1]) it was 6%.

For `O=C(NN1CC2CCCC2C1)c1nn(-c2ccc(Cl)cc2)c2c1CSC/C2=C\c1ccc(F)cc1` (stereo not drawn) [Cpd 103, (7Z)-1-(4-chloro-phenyl)-7-(4-fluoro-benzylidene)-1,4,6,7-tetrahydro-thiopyrano[4,3-c]pyrazole-3-carboxylic acid (hexahydro-cyclopenta[c]pyrrol-2-yl)-amide], the results for the inhibition at 0.2 µM at human CB-2 receptor and at human CB1 receptor (setting [1]) were 5% and 62%, respectively.

In the case of `C[C@@H](NC(=O)/C=C/c1nn(Cc2ccccc2)c2c1C[S+]([O-])CC2)c1ccccc1` (stereo partly drawn) [Cpd 35, (2E)-3-(1-benzyl-5-oxo-4,5,6,7-tetrahydro-1H-5λ^4-thiopyrano[4,3-c]pyrazol-3-yl)-N-[(1R)-1-phenyl-ethyl]-acrylamide], the inhibition at 10 µM on human CB-2 receptor (test concentration 10 μM (superscript c)) worked out at 28%; at human CB1 receptor (test concentration 10 μM (superscript c), read-out: CB1 binding percent inhibition) it was 4%.

Turning to `C[C@@H](NC(=O)c1c2c(nn1-c1ccc(Cl)cc1Cl)/C(=C/c1ccc(F)cc1)CS(=O)(=O)C2)C1CCCCC1` [Cpd 84, (7Z)-2-(2,4-dichloro-phenyl)-7-(4-fluoro-benzylidene)-5,5-dioxo-4,5,6,7-tetrahydro-2H-5λ^6-thiopyrano[4,3-c]pyrazole-3-carboxylic acid [(1R)-1-cyclohexyl-ethyl]-amide], the inhibition at 0.2 µM at human CB-2 receptor turned out to be 17%. This compound showed an IC50 at human CB1 receptor of 2 nM.

In the case of `O=C(NN1CC2CCCC2C1)c1nn(-c2ccc(Cl)cc2)c2c1CS(=O)(=O)C/C2=C\c1ccc(F)cc1` (stereo not drawn) [Cpd 97, (7Z)-1-(4-chloro-phenyl)-7-(4-fluoro-benzylidene)-5,5-dioxo-4,5,6,7-tetrahydro-1H-5λ^6-thiopyrano[4,3-c]pyrazole-3-carboxylic acid (hexahydro-cyclopenta[c]pyrrol-2-yl)-amide], the inhibition at 0.2 µM at human CB-2 receptor was determined as 8%. This compound also returned an IC50 on human CB1 receptor of 68 nM.

As for `O=C(NN1CCCCC1)c1nn(-c2ccc(Cl)cc2Cl)c2c1CSC/C2=C\c1ccc(Br)cc1` [Cpd 130, (7Z)-(4-Bromo-benzylidene)-1-(2,4-dichloro-phenyl)-1,4,6,7-tetrahydro-thiopyrano[4,3-c]pyrazole-3-carboxylic acid piperidin-1-ylamide], the inhibition at 0.2 µM at human CB-2 receptor was 34%. The IC50 at human CB1 receptor was 21 nM.

As to `O=S(=O)(/C=C/c1nn(-c2ccc(F)cc2F)c2c1CSCC2Cc1cccc(F)c1)NN1CCCCC1` (stereo not drawn) [Cpd 40, (E)-2-[1-(2,4-difluoro-phenyl)-7-(3-fluoro-benzyl)-1,4,6,7-tetrahydro-thiopyrano[4,3-c]pyrazol-3-yl]-ethenesulfonic acid piperidin-1-ylamide], the inhibition at 0.2 µM on human CB-2 receptor amounted to 10%; on human CB1 receptor (setting [1]), 12%.

Take `CC1CCCC(C)N1NC(=O)c1nn(-c2ccc(Cl)cc2Cl)c2c1CS(=O)(=O)C/C2=C\c1ccc(F)cc1` (stereo not drawn) [Cpd 108, (7Z)-1-(2,4-dichloro-phenyl)-7-(4-fluoro-benzylidene)-5,5-dioxo-4,5,6,7-tetrahydro-1H-5λ^6-thiopyrano[4,3-c]pyrazole-3-carboxylic acid (2,6-dimethyl-piperidin-1-yl)-amide]: the inhibition at 0.2 µM on human CB-2 receptor worked out at 18%; on human CB1 receptor (setting [1]), 88%.

`O=C(NN1CCCC1)c1nn(-c2ccc(Cl)cc2Cl)c2c1CSC/C2=C\c1ccc(F)cc1` [Cpd 56, (7Z)-1-(2,4-dichloro-phenyl)-7-(4-fluoro-benzylidene)-1,4,6,7-tetrahydro-thiopyrano[4,3-c]pyrazole-3-carboxylic acid pyrrolidin-1-ylamide]: at human CB-2 receptor, the inhibition at 0.2 µM came to 15%. Also, on human CB1 receptor, the IC50 was determined as 35 nM.

For `O=C(NN1CCCCCC1)c1nn(-c2ccc(Cl)cc2Cl)c2c1CS(=O)(=O)C/C2=C\c1ccc(Cl)o1` [Cpd 120, (7Z)-7-(5-chloro-furan-2-ylmethylene)-1-(2,4-dichloro-phenyl)-5,5-dioxo-4,5,6,7-tetrahydro-1H-5λ^6-thiopyrano[4,3-c]pyrazole-3-carboxylic acid azepan-1-ylamide], the inhibition at 0.2 µM on human CB-2 receptor was found to be 12%. For the same compound, the IC50 at human CB1 receptor was found to be 33 nM.
